Measured values from patent US4087540A, “Octahydro-N-[(trichloromethyl)thio]-naphthalenedicarboximides” (Sterling Drug Inc., priority 1977, dated 1978).

Experiments:
[1] = test system: fungus; assay: fungicidal activity (general); details: for fungicidal activity: in words
Excerpt: (§1) In order to find a fungicide with high solubility in petroleum hydrocarbons, numerous N-trichloromethylthio compounds have been synthesized and tested for activity and solubility. […] Rather, activity is associated with certain structural features.

[2] = test system: blue discoloration; details: E. Hoffman and A. Saracz; cited from earlier work
[3] = test system: fungus; details: cited from earlier work; for properties as fungicidal additives to paints: Fette, Seifen, Anstrichmittel 1966
[4] = cited from earlier work
[5] = solubility in mineral spirits; assay type: physicochemical; details: VIII (Z=N--S--CCl3) vs IC
Excerpt: (§2) These properties appear to be associated with the octahydronaphthalene structure of the compounds. Thus when the anhydride VIII (Z=O) was converted to the corresponding N-[(trichloromethyl)thio]-imide (VIII, Z=N--S--CCl3) the surprising observation was made that the cyclized compound IC has about five times the fungicidal activity, and against staphylococcus aureus about 100 times the activity, of the uncyclized compound VIII (Z=N--S--CCl3) and that the latter compound had only one-fifth the solubility of compound IC. The solubility data and minimum inhibitory concentration against several microorganisms for these two compounds as well as the known fungicide Captan are presented in the following table.

[6] = test system: Staphylococcus aureus; assay: minimum inhibitory concentration against Staphylococcus aureus; assay type: cell-based; details: for Minimum Inhibitory Concentration (%): microorganism 1, Staphylococcus aureus
Excerpt: as §2

[7] = test system: Penicillium glaucum; assay: minimum inhibitory concentration against Penicillium glaucum; assay type: cell-based; details: microorganism 2, Penicillium glaucum
Excerpt: as §2

[8] = test system: Aspergillus niger; assay: minimum inhibitory concentration against Aspergillus niger; assay type: cell-based; details: microorganism 3, Aspergillus niger
Excerpt: as §2

[9] = test system: Sclerophoma pityophila; assay: minimum inhibitory concentration against Sclerophoma pityophila; assay type: cell-based; details: microorganism 4, Sclerophoma pityophila
Excerpt: as §2

[10] = test system: Pullularia pullulans; assay: minimum inhibitory concentration against Pullularia pullulans; assay type: cell-based; details: microorganism 5, Pullularia pullulans
Excerpt: as §2

[11] = test system: Saccharomyces cerevisiac; assay: minimum inhibitory concentration against Saccharomyces cerevisiac; assay type: cell-based; details: microorganism 6, Saccharomyces cerevisiac
Excerpt: as §2

[12] = test system: Candida albicans; assay: minimum inhibitory concentration against Candida albicans; assay type: cell-based; details: microorganism 7, Candida albicans
Excerpt: as §2

[13] = B. A. Richardson; cited from earlier work
[14] = assay type: physicochemical; details: in words
Excerpt: as §1

In the case of `O=C1Cc2ccccc2C(=O)N1SC(Cl)(Cl)Cl`, the fungicidal activity [1] is reported as “inactive”.
For `CCCCCCCCCCCCCCCCC1CC(=O)N(SC(Cl)(Cl)Cl)C1=O` (centres unmarked), the fungicidal activity [1] was “inactive”.
With `CC12CCC(C(=O)N(SC(Cl)(Cl)Cl)C1=O)C2(C)C` (centres unmarked) the fungicidal activity [1] was “inactive”.
In the case of `O=C1c2ccccc2C(=O)N1SC(Cl)(Cl)Cl` [III], the “sufficiency of 1% to prevent blue discoloration” value [2] is given as “insufficient to prevent blue discoloration”.
In the case of `O=C1C2C3c4ccccc4C(c4ccccc43)C2C(=O)N1SC(Cl)(Cl)Cl` (centres unmarked), the fungicidal activity [1] is reported as “inactive”.
In the case of `CN(C)S(=O)(=O)N(SC(F)(Cl)Cl)c1ccccc1` [VI], the “properties as fungicidal additives to paints” value [3] is listed as “useful properties”.
For `O=C1C2CCCCC2C(=O)N1SC(Cl)(Cl)Cl` (centres unmarked) [IV], the “solubility in petroleum ether” value [4] is listed as 0.3%.
For `CC(C)=CCCC1=CCC2C(=O)N(SC(Cl)(Cl)Cl)C(=O)C2C1` (centres unmarked) [VIII], the “solubility relative to compound IC” value [5] was “one-fifth”, the “Minimum Inhibitory Concentration (%)” value [6] was 1% and the “Minimum Inhibitory Concentration (%)” value [7] was 0.005%. For the same compound, the “Minimum Inhibitory Concentration (%)” value [8] was 0.01%, the “Minimum Inhibitory Concentration (%)” value [9] was 0.005% and the “Minimum Inhibitory Concentration (%)” value [10] was 0.005%. For the same compound, the “Minimum Inhibitory Concentration (%)” value [11] was 0.005% and the “Minimum Inhibitory Concentration (%)” value [12] was 0.01%.
In the case of `O=C1C2CC=CCC2C(=O)N1SC(Cl)(Cl)Cl` (centres unmarked) [Captan], the “Minimum Inhibitory Concentration (%)” value [6] is reported as 0.05%, the “Minimum Inhibitory Concentration (%)” value [7] is reported as 0.01% and the “Minimum Inhibitory Concentration (%)” value [8] is reported as 0.05%. The “Minimum Inhibitory Concentration (%)” value [10] was 0.005%, the “Minimum Inhibitory Concentration (%)” value [12] was 0.01% and the “fungicidal effectiveness in paints” value ([3]; owing to its low solubility in paints, B. A. Richardson) was “practically ineffective”. The solubility in paints [13] was “low solubility”.
In the case of `O=C1c2ccccc2C(=O)N1SC(F)(Cl)Cl` [V], the “properties as fungicidal additives to paints” value [3] is listed as “useful properties”.
With `CC1(C)CCCC2=C1CC1C(=O)N(SC(Cl)(Cl)Cl)C(=O)C1C2` (centres unmarked) [IC, 1,2,3,4,5,6,7,8-octahydro-5,5-dimethyl-N-[(trichloromethyl)thio]-2,3-naphthalenedicarboximide] the “activity against staphylococcus aureus relative to uncyclized compound VIII (Z=N--S--CCl3)” value ([6]; IC vs VIII) was “about 100 times”, the “Minimum Inhibitory Concentration (%)” value [6] was 0.01% and the “Minimum Inhibitory Concentration (%)” value [7] was 0.001%. The “Minimum Inhibitory Concentration (%)” value [8] was 0.01%, the “Minimum Inhibitory Concentration (%)” value [9] was 0.001% and the “Minimum Inhibitory Concentration (%)” value [10] was 0.001%. The “Minimum Inhibitory Concentration (%)” value [11] was 0.001%, the “Minimum Inhibitory Concentration (%)” value [12] was 0.001% and the “fungicidal activity relative to uncyclized compound VIII (Z=N--S--CCl3)” value ([1]; IC vs VIII) was “about five”. The fungicidal activity [1] was “excellent fungicidal activity” and the “solubility in petroleum hydrocarbons” value [14] was “good solubility in petroleum hydrocarbons”.
In the case of `CC1=C2CCC(C)CC2C2C(=O)N(SC(Cl)(Cl)Cl)C(=O)C2C1` (centres unmarked) [IA, 1,2,3,5,6,7,8,8a-octahydro-4,7-dimethyl-N-[(trichloromethyl)-thio]-1,2-naphthalenedicarboximide], the fungicidal activity [1] is reported as “excellent fungicidal activity” and the “solubility in petroleum hydrocarbons” value [14] is reported as “good solubility in petroleum hydrocarbons”.
With `CC1(C)C2CC3C(=CCC4C(=O)N(SC(Cl)(Cl)Cl)C(=O)C43)C1C2` (centres unmarked) [IB, 1,2,3,4,4a,5,6,7-octahydro-2,2-dimethyl-N-[(trichloromethyl)thio]-1,3-methanonaphthalene-5,6-dicarboximide] the fungicidal activity [1] was “excellent fungicidal activity” and the “solubility in petroleum hydrocarbons” value [14] was “good solubility in petroleum hydrocarbons”.
